# Test results from publication PMC8428568, “Discovery of re-purposed drugs that slow SARS-CoV-2 replication in human cells” (PLoS Pathogens, 2021).
# Where a name gives a salt, the structure may show the parent alone. Read-outs that look alike come from different tables or passages of the source.
# Tests used:
# [1] = test system: SARS-CoV-2-ΔOrf7a-NLuc virus; experiment: microbe, parasite or virus in culture; format: cell-based
# [2] = test system: recombinant NLuc; format: biochemical
# [3] = recombinant NLuc activity relative to DMSO
# [4] = recombinant NLuc, first read column
# [5] = recombinant NLuc, fourth read column
# [6] = recombinant NLuc, third read column
Molecule,% activity in Vero 100PFU screen [1],"Relative Recombinant NLUC [2, 3]","Reads Counts per second (read 1) [2, 4]","Reads Counts per second (read 4) [2, 5]",Reads Counts per second (read 2) ([2]; recombinant NLuc),"Reads Counts per second (read 3) [2, 6]","activity at 10 µM ([1]; Severe acute respiratory syndrome coronavirus 2, Vero, 72 h, […], 1 = untreated, 0 = total inhibition, read-out: Mean relative luminescence (n=4))",Reads Counts per second (read 1) [2],Reads Counts per second (read 3) [2],Reads Counts per second (read 4) [2],Relative Recombinant NLUC [2]
Bivalirudin Trifluoroacetate,172%,0.8139,309590 Counts per second,301908 Counts per second,311058 Counts per second,307409 Counts per second,–,–,–,–,–
"N#CC[C@H](C1CCCC1)n1cc(-c2ncnc3[nH]ccc23)cn1 [Ruxolitinib (INCB018424), Ruxolitinib]",169%,0.8381,314540 Counts per second,316727 Counts per second,–,317488 Counts per second,–,–,–,–,–
Cc1[nH]cnc1CN1CCc2c(c3ccccc3n2C)C1=O [Alosetron Hydrochloride],177%,0.8898,328498 Counts per second,339698 Counts per second,338671 Counts per second,337783 Counts per second,–,–,–,–,–
CNCCC(Oc1ccc(C(F)(F)F)cc1)c1ccccc1.Cl (stereo not drawn) [Fluoxetine HCl],2.12%,–,317425 Counts per second,307707 Counts per second,–,314163 Counts per second,–,–,–,–,–
Cn1c(=O)cc(N2CCC[C@@H](N)C2)n(Cc2ccccc2C#N)c1=O [Alogliptin Benzoate],166%,0.863,316906 Counts per second,323679 Counts per second,332493 Counts per second,331161 Counts per second,–,–,–,–,–
NC(=O)c1ccc[n+]([C@@H]2O[C@H](COP(=O)([O-])OP(=O)(O)OC[C@H]3O[C@@H](n4cnc5c(N)ncnc54)[C@H](O)[C@@H]3O)[C@@H](O)[C@H]2O)c1 [NAD+],164%,1.016,385544 Counts per second,376264 Counts per second,–,386401 Counts per second,–,–,–,–,–
COc1ccc2c(c1OC)C(=O)O[C@@H]2[C@H]1c2c(cc3c(c2OC)OCO3)CCN1C [Noscapine HCl],213%,0.9502,358232 Counts per second,354994 Counts per second,–,362883 Counts per second,–,–,–,–,–
CN(C(=O)CN(CCO)CC(=O)N(C)C(C)(C)Cc1ccccc1)C(C)(C)Cc1ccccc1 [Oxethazaine],167%,0.8736,330534 Counts per second,321724 Counts per second,–,331517 Counts per second,–,–,–,–,–
CC(C)(C)NC(=O)N[C@H](C(=O)N1C[C@H]2[C@@H]([C@H]1C(=O)NC(CC1CCC1)C(=O)C(N)=O)C2(C)C)C(C)(C)C (stereo partly drawn) [Boceprevir],178%,0.9177,341877 Counts per second,349417 Counts per second,348889 Counts per second,346623 Counts per second,–,–,–,–,–
OB1OCc2cc(F)ccc21 [AN-2690],171%,0.8709,329173 Counts per second,324160 Counts per second,329953 Counts per second,332892 Counts per second,–,–,–,–,–
O=c1c(-c2ccc(O)cc2)coc2cc(O)ccc12 [Daidzein],161%,0.9154,339091 Counts per second,346126 Counts per second,–,350216 Counts per second,–,–,–,–,–
O=C(O)/C=C/c1ccc(O)c(O)c1 [Caffeic acid],173%,1.054,390077 Counts per second,403178 Counts per second,–,399891 Counts per second,–,–,–,–,–
C[C@H]1CN(C[C@H](Cc2ccccc2)C(=O)NCC(=O)O)CC[C@@]1(C)c1cccc(O)c1 [Alvimopan],169%,0.9202,338215 Counts per second,352328 Counts per second,350063 Counts per second,350082 Counts per second,–,–,–,–,–
(+)-Catechin hydrate,160%,0.9621,362209 Counts per second,367703 Counts per second,357899 Counts per second,366108 Counts per second,–,–,–,–,–
C[C@](N)(Cc1ccc(O)c(O)c1)C(=O)O [Methyldopa],175%,0.9666,361429 Counts per second,367357 Counts per second,–,364798 Counts per second,–,–,–,–,–
NC(=O)CC[C@H](N)C(=O)O [L-Glutamine],204%,0.9419,349150 Counts per second,350740 Counts per second,–,361792 Counts per second,–,–,–,–,–
"Cc1cnc(NC(=O)C2=C(O)c3ccccc3S(=O)(=O)N2C)s1 [Meloxicam (Mobic), Meloxicam]",178%,0.824,308460 Counts per second,312953 Counts per second,–,309204 Counts per second,–,–,–,–,–
O=C([O-])CC(O)(CC(=O)[O-])C(=O)[O-].[Li+].[Li+].[Li+] [Lithium Citrate],205%,0.9217,343238 Counts per second,343490 Counts per second,–,350985 Counts per second,–,–,–,–,–
CC(C)(C)c1ccc(C(=O)CCCN2CCC(OC(c3ccccc3)c3ccccc3)CC2)cc1 [Ebastine],–,–,323732 Counts per second,326603 Counts per second,–,324560 Counts per second,0.793%,–,–,–,–
C[N+]1(C)CCCC(OC(=O)C(O)(c2ccccc2)c2ccccc2)C1 (stereo not drawn) [Mepenzolate Bromide],175%,–,–,–,–,–,–,330221 Counts per second,339233 Counts per second,336213 Counts per second,0.8896
C[C@H](CCC(=O)O)[C@H]1CC[C@H]2[C@@H]3CC[C@@H]4C[C@H](O)CC[C@]4(C)[C@H]3CC[C@]12C [Lithocholic Acid],205%,0.9342,350340 Counts per second,353302 Counts per second,–,350189 Counts per second,–,–,–,–,–
COc1ccccc1OCC(O)CN1CCN(CC(=O)Nc2c(C)cccc2C)CC1 (stereo not drawn) [Ranolazine],167%,0.9679,359507 Counts per second,367791 Counts per second,–,367539 Counts per second,–,–,–,–,–
O=C(O)[C@H]1O[C@@H](Oc2cc3oc(-c4ccccc4)cc(=O)c3c(O)c2O)[C@H](O)[C@@H](O)[C@@H]1O [Baicalin],164%,0.9439,353023 Counts per second,357276 Counts per second,358945 Counts per second,357158 Counts per second,–,–,–,–,–
"CC[C@@H]1/C=C(\C)C[C@H](C)C[C@H](OC)[C@H]2O[C@@](O)(C(=O)C(=O)N3CCCC[C@H]3C(=O)O[C@H](/C(C)=C/[C@@H]3CC[C@@H](O)[C@H](OC)C3)[C@H](C)[C@@H](O)CC1=O)[C@H](C)C[C@@H]2OC [Ascomycin(FK 520), Ascomycin]",171%,0.8402,312887 Counts per second,314498 Counts per second,325360 Counts per second,316950 Counts per second,–,–,–,–,–
N[C@@H](Cc1ccc(O)c(O)c1)C(=O)O [Levodopa],233%,0.839,304150 Counts per second,316577 Counts per second,–,322065 Counts per second,–,–,–,–,–
CCS(=O)(=O)N1CC(CC#N)(n2cc(-c3ncnc4[nH]ccc34)cn2)C1 [Baricitinib phosphate],199%,0.9095,337511 Counts per second,349331 Counts per second,341167 Counts per second,346435 Counts per second,–,–,–,–,–
